Legend:
Type in all cases: in vivo
[1] = system: Chenopodium album; test: Test Example 14: herbicidal effect test by foliage treatment in upland field; settings: 7 days after sowing, 120 g/10a, 14 days after treatment
How it was run: (§1)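 Emulsifiable concentrate, water-diluted, is applied post-emergence to 7-day-old sowings in field soil at 120 g active ingredient per 10 are. The weed suppression rate derives from average dry weights versus untreated controls, measured 14 days later.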

[2] = system: crabgrass; test: as above; settings: 7 days after sowing, 120 g/10a, 14 days after treatment
How it was run: as §1

[3] = system: Chenopodium album; test: Test Example 13: herbicidal effect test by soil treatment in upland field; settings: 120 g/10a, 14 days after treatment
How it was run: (§2)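 Pre-emergence soil treatment: alluvial soil pots (36 cm^2) sown with 20 seeds per weed species, sprayed one day later with water-diluted emulsifiable concentrate at 100 liter per 10 are, equal to 120 g active ingredient per 10 are. Two replicates; weed suppression (%) from dry weight versus untreated plots at 14 days.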

[4] = system: Echinochloa crus-galli; test: as above; settings: 120 g/10a, 14 days after treatment
How it was run: as §2

[5] = system: crabgrass; test: as above; settings: 120 g/10a, 14 days after treatment
How it was run: as §2

[6] = system: Amaranthus viridis; test: as above; settings: 120 g/10a, 14 days after treatment
How it was run: as §2

[7] = system: Lindernia pyxidaria; test: Test Example 11: herbicidal effect test by soil treatment in paddy field; settings: 120 g/10a active ingredient, 14 days after treatment
How it was run: (§3)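 Seeds were sown 0-1 cm deep in puddled, fertilised paddy soil in Wagner pots and kept under about 3 cm of flooding in a greenhouse. Diluted emulsifiable concentrate was added dropwise right after sowing at 120 g a.i. per 10 are. Suppression (%) came from dry weight versus untreated pots after 14 days, two replicates.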

[8] = system: Echinochloa crus-galli; test: as above; settings: 120 g/10a active ingredient, 14 days after treatment
How it was run: as §3

[9] = system: Monochoria vaginalis; test: as above; settings: 120 g/10a active ingredient, 14 days after treatment
How it was run: as §3

[10] = system: Scirpus juncoides; test: as above; settings: 120 g/10a active ingredient, 14 days after treatment
How it was run: as §3

[11] = system: Echinochloa crus-galli; test: Test Example 14: herbicidal effect test by foliage treatment in upland field; settings: 7 days after sowing, 120 g/10a, 14 days after treatment
How it was run: as §1

[12] = system: Amaranthus viridis; test: as above; settings: 7 days after sowing, 120 g/10a, 14 days after treatment
How it was run: as §1

[13] = system: Lindernia pyxidaria; test: Test Example 12: herbicidal effect test by treatment during growing period in paddy field; settings: 120 g/10a; treatment seven days after sowing in flooded paddy pot; assessed 14 days after treatment
How it was run: (§4)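 Puddled paddy soil in Wagner pots, 30 seeds per species sown 0-1 cm deep, flooded to about 3 cm in a greenhouse. Seven days after sowing, water-diluted emulsifiable concentrate was dripped in at 120 g active ingredient per 10 are. Suppression (%) from dry weight versus untreated at 14 days, two replicates.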

[14] = system: Echinochloa crus-galli; test: as above; settings: 120 g/10a; treatment seven days after sowing in flooded paddy pot; assessed 14 days after treatment
How it was run: as §4

[15] = system: Monochoria vaginalis; test: as above; settings: 120 g/10a; treatment seven days after sowing in flooded paddy pot; assessed 14 days after treatment
How it was run: as §4

[16] = system: Scirpus juncoides; test: as above; settings: 120 g/10a; treatment seven days after sowing in flooded paddy pot; assessed 14 days after treatment
How it was run: as §4

Compound | herbicidal effect, Chenopodium album [1] [%] | herbicidal effect, Crabgrass [2] [%] | herbicidal effect, Chenopodium album [3] [%] | herbicidal effect, Echinochloa crus-galli [4] [%] | herbicidal effect, Crabgrass [5] [%] | herbicidal effect, Amaranthus viridis [6] [%] | Weed suppression rate (%) Lindemia pyxidaria [7] [%] | Weed suppression rate (%) Echinochloa crus-galli [8] [%] | Weed suppression rate (%) Monochoria vaginalis [9] [%] | Weed suppression rate (%) Scirpus juncoides [10] [%] | herbicidal effect, Echinochloa crus-galli [11] [%] | herbicidal effect, Amaranthus viridis [12] [%] | Weed suppression rate (%) Lindemia pyxidaria [13] [%] | Weed suppression rate (%) Echinochloa crus-galli [14] [%] | Weed suppression rate (%) Monochoria vaginalis [15] [%] | Weed suppression rate (%) Scirpus juncoides [16] [%]
CC(C)N(C(=O)n1cnn(S(=O)(=O)c2ccccc2)c1=O)c1ccc(F)cc1F [Compound 11-367] | 40 | 90 | 40 | 100 | 100 | 40 | 100 | 100 | 90 | 90 | 90 | 40 | 90 | 100 | 90 | 90
CC(C)N(C(=O)n1cnn(S(=O)(=O)c2cccc(F)c2)c1=O)c1ccccc1 [Compound 11-427] | 60 | 90 | 60 | 70 | 90 | 40 | 80 | 100 | 60 | 60 | 40 | 40 | 90 | 90 | 90 | 90
CCN(CC)C(=O)n1cnn(S(=O)(=O)c2ccc(F)cc2)c1=O [Compound 11-463] | 0 | 60 | 100 | 90 | 90 | 80 | 50 | 90 | 50 | 40 | 70 | 40 | 80 | 90 | 80 | 80
CC(C)N(C(=O)n1cnn(S(=O)(=O)c2ccc(F)cc2)c1=O)c1ccc(F)cc1F [Compound 11-475] | 40 | 90 | 90 | 100 | 100 | 80 | 90 | 100 | 90 | 90 | 70 | 40 | 90 | 90 | 90 | 90
CC(C)N(C(=O)n1cnn(S(=O)(=O)c2ccc(F)cc2)c1=O)c1ccc(F)cc1Cl [Compound 11-482] | 80 | 90 | 80 | 80 | 90 | 90 | 80 | 90 | 80 | 90 | 80 | 90 | 80 | 90 | 80 | 90
CCN(CC)C(=O)n1cnn(S(=O)(=O)c2ccccc2Cl)c1=O [Compound 11-500] | 50 | 40 | 0 | 80 | 80 | 0 | 50 | 90 | 50 | 50 | 40 | 40 | 60 | 80 | 60 | 60
CC(C)N(C(=O)n1cnn(S(=O)(=O)c2ccccc2Cl)c1=O)c1ccccc1 [Compound 11-501] | 0 | 90 | 0 | 40 | 90 | 0 | 90 | 100 | 80 | 90 | 70 | 0 | 80 | 100 | 90 | 90
CC(C)N(C(=O)n1cnn(S(=O)(=O)c2ccccc2Cl)c1=O)c1ccc(F)cc1F [Compound 11-512] | 50 | 90 | 50 | 100 | 100 | 70 | 100 | 100 | 100 | 100 | 80 | 40 | 100 | 100 | 100 | 90
Cc1ccccc1S(=O)(=O)n1ncn(C(=O)N(c2ccc(F)cc2F)C(C)C)c1=O [Compound 11-623] | 40 | 60 | 0 | 100 | 90 | 0 | 100 | 100 | 90 | 90 | 80 | 40 | 100 | 100 | 100 | 90
Cc1ccc(S(=O)(=O)n2ncn(C(=O)N(c3ccccc3)C(C)C)c2=O)cc1 [Compound 11-626] | 90 | 90 | 70 | 90 | 90 | 50 | 90 | 100 | 70 | 90 | 40 | 60 | 80 | 90 | 80 | 90

Source: patent US11076595B2, “1-(n,n-disubstituted carbamoyl) 4-(substituted sulfonyl)triazolin-5-one derivative, 4-(n,n-disubstituted carbamoyl) 1-(substituted sulfonyl)triazolin-5-one derivative, and herbicide containing said derivative as active ingredient” (HOKKO CHEMICAL INDUSTRY CO., LTD., priority 2017, dated 2021)
